Measured values as given in article PMC9415896, “Total Synthesis of the Antimycobacterial Natural Product Chlorflavonin and Analogs via a Late-Stage Ruthenium(II)-Catalyzed ortho-C(sp^2)-H-Hydroxylation” (Pharmaceuticals, 2022).
Converted amounts (≈) assume the structure as drawn.

Tests used:
[1] = not given; remark: listed apart in the source
[2] = Chemical stability in phosphate buffer (HPLC-UV); type: physicochemical
Method: Stability testing was performed in phosphate buffer pH 2.0 and 7.4 (prepared according to Ph. Eur. 10) at 20 °C over a period of 48 h. Therefore, 0.4 mg of substance was dissolved in Tween® 20 und ethanol (7/3 v/v) and diluted with the respective phosphate buffer. The solution was shaken with an IKA KS 260 basic (250 min^−1) at 25 °C for 48 h. Analysis was performed after 1, 3, 6, 24, and 48 h by comparing the area under the curve (A.U.C.), which was measured with HPLC-UV at 254 nm (n = 1).

M. tuberculosis H37Rv [3] = assay: Minimal inhibitory concentration (MIC) resazurin assay; type: cell-based, Mycobacterium tuberculosis
[4] = tested on: human cell lines MRC-5, HEK-293, THP-1; type: cell-based
Method: For the determination of the cytotoxicity of the compounds, different human cell lines were used. The human fetal lung fibroblast cell line MRC-5 (American Type Culture Collection) was incubated in Eagle’s Minimum Essential Medium (EMEM) containing 1% (v/v) Na-pyruvate, whereas the human embryonic kidney cell line HEK-293 (CLS Cell Lines Service GmbH) was cultivated in EMEM supplemented with 2 mM L-glutamine, 1% (v/v) non-essential amino acids, and 1 mM sodium pyruvate. The human monocyte cell line THP-1 (Deutsche Sammlung von Mikroogranismen und Zellkulturen GmbH) was cultured in RPMI 1640 medium. All media were supplemented with 10% (v/v) heat-inactivated fetal bovine serum (FBS).
The cell densities were quantified using a hemocytometer and then adjusted to 10^6 cells/mL. Next, 100 µL per well were seeded in 96-well microtiter plates to yield an inoculation cell density of […] cells per well. Compounds were added employing two-fold serial dilutions resulting in final concentrations ranging from 100 to 0.78 µM. Cells were incubated for two days at 37 °C and 5% CO2 in a humidified atmosphere. […] Fluorescence was measured in a TECAN microplate reader (excitation of 540 nm, emission of 590 nm). The percentage of growth was calculated with respect to DMSO (100% growth) and Triton X-100 (0% growth) controls.

[5] = Single-point metabolic stability in human liver microsomes; type: in vitro ADME
Method: The metabolic stability assay was performed in Human Liver Microsomes (HLM) using a single-point metabolic stability assay. Briefly, the compounds were incubated at 1 μM in 0.4 mg/mL human mixed-gender liver microsomes (Xenotech, Kansas City, KS, USA, pool of 50) for 30 min at 37 °C. Reactions were quenched by adding ice-cold acetonitrile containing internal standard. The samples were then centrifuged and analyzed by LC-MS/MS for the disappearance of the parent compound. Half-life, clearance, and hepatic […] ratios were determined using standard equations [47, 48]. Propranolol and midazolam were used as positive controls and treated similarly.

Mtb = tested on: Mtb; design: method as in PMID 9818746; conditions: Mtb-infected mice; cited from earlier work
monocyte cell line THP-1 = conditions: ref Rehberg et al. [14]; cited from earlier work
physchem [6] = conditions: pH 7.4
[7] = tested on: Mtb XDR clinical isolates; conditions: ref Rehberg et al. [14]; cited from earlier work
[8] = tested on: human fetal lung fibroblast cell line MRC-5; conditions: ref Rehberg et al. [14]; cited from earlier work
M. tuberculosis H37Rv [9] = tested on: M. tuberculosis H37Rv; design: method as in Rehberg et al. [14]; conditions: ref Rehberg et al. [14], cited from earlier work
physchem [10] = assay: physchem

COc1cc(O)c2c(=O)c(OC)c(-c3cc(F)cc(Br)c3O)oc2c1OC [Compound 1i]
melting point: 251.4 °C

COc1cc(O)c2c(=O)c(OC)c(-c3cccc(Br)c3F)oc2c1OC [Compound 1f]
melting point: 217.4 °C

COc1cc(O)c2c(=O)c(OC)c(-c3cccc(Br)c3O)oc2c1OC [Compound 1a]
melting point: 210.2 °C

COc1cc(O)c2c(=O)c(OC)c(-c3cccc(Cl)c3)oc2c1OC
melting point: 188.3 °C

COc1cc(O)c2c(=O)c(OC)c(-c3ccc(Cl)cc3O)oc2c1OC
melting point: 240.7 °C

COc1cc(O)c2c(=O)c(OC)c(-c3cccc(Br)c3OC(F)F)oc2c1OC
melting point: 162.4 °C

COc1cc(O)c2c(=O)c(OC)c(-c3cccc(I)c3O)oc2c1OC [Compound 1c]
melting point: 223.4 °C

COc1cc(O)c2c(=O)c(OC)c(-c3cc(F)cc(Cl)c3O)oc2c1OC
melting point: 245 °C

COc1cc(O)c2c(=O)c(OC)c(-c3cccc(Br)c3O)oc2c1OC [BF, bromflavonin]
Water solubility at pH 7.4 [1]: <5 μM | drug content after 48 h ([2]; phosphate buffer pH 2.0, 48 h): 99% | drug content after 48 h ([2]; phosphate buffer pH 7.4, 48 h): 99% | Minimal Inhibitory Concentrations (MIC90) (M. tuberculosis H37Rv [3]): 0.78 μm | antimycobacterial activity (M. tuberculosis H37Rv [3]; Mtb H37Rv, in words): submicromolar | cytotoxicity toward human cells [4]: no cytotoxicity | CLint, app (predicted in vivo intrinsic clearance) [5]: 53.4

COC(=O)c1ccccc1S(=O)(=O)NC(=O)Nc1nc(C)cc(C)n1 [sulfometuron methyl]
proliferation of the pathogen in the host's lungs (Mtb): significantly reduced proliferation

COc1cc(O)c2c(=O)c(OC)c(-c3cccc(F)c3O)oc2c1OC [Compound 1b]
melting point: 208.6 °C

COc1cc(O)c2c(=O)c(OC)c(-c3cccc(C(F)(F)F)c3O)oc2c1OC [Compound 1d]
melting point: 195.4 °C

COc1cc(O)c2c(=O)c(OC)c(-c3cccc(C)c3O)oc2c1OC
melting point: 213.3 °C

COc1cc(O)c2c(=O)c(OC)c(-c3cccc(Cl)c3O)oc2c1OC [CF, chlorflavonin]
cytotoxicity (monocyte cell line THP-1): no cytotoxicity | solubility at 24 h (physchem [6]): < 5 µM | melting point: 213.7 °C | in vitro growth inhibition [7]: strong in vitro growth inhibition | cytotoxicity [8]: no cytotoxicity | drug content after 48 h ([2]; phosphate buffer pH 2.0, 48 h): 99% | drug content after 48 h ([2]; phosphate buffer pH 7.4, 48 h): 99% | effect of mono treatment (M. tuberculosis H37Rv [9]; mono treatment with CF): bacteriostatic effect | MIC90 (M. tuberculosis H37Rv [9]; virulent Mtb H37Rv, in vitro growth inhibition): 1.56 µM (≈ 0.591 µg/mL) | combination effect (M. tuberculosis H37Rv [9]; with delamanid and isoniazid, including intracellular activity against infected human macrophages): synergistic efficacy | remaining after 30 min ([5]; 1 μM, human liver microsomes 0.4 mg/mL, 30 min, 37 °C): 48% | pKa (physchem [10]; pKa1 (2′-OH)): 6.8 ± 0.07 | pKa (physchem [10]; pKa2 (5-OH)): 10.4

COc1cc(O)c2c(=O)c(OC)c(-c3ccc(Cl)c(O)c3)oc2c1OC
melting point: 48 °C

COc1cc(O)c2c(=O)c(OC)c(-c3cccc(Cl)c3Cl)oc2c1OC
melting point: 184.8 °C
